Results published in PubChem BioAssay (NCI).
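Results reflect a 48-hour exposure of cells in 96-well plates to compound at five concentrations. TGI: total growth inhibition.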

Legend:
Experiment in all cases: NCI tumour cell line growth inhibition, 48 h
[1] = tested on: TK-10 renal
[2] = tested on: NCI-H23 lung
[3] = tested on: SNB-75 CNS
[4] = tested on: U251 CNS
[5] = tested on: K-562 leukemia
[6] = tested on: HS 578T breast
[7] = tested on: T-47D breast
[8] = tested on: NCI-H522 lung
[9] = tested on: SK-MEL-2 melanoma
[10] = tested on: CCRF-CEM leukemia
[11] = tested on: 786-0 renal
[12] = tested on: HT29 colon
[13] = tested on: SF-268 CNS
[14] = tested on: CAKI-1 renal
[15] = tested on: SK-MEL-5 melanoma
[16] = tested on: SN12C renal
[17] = tested on: SK-MEL-28 melanoma
[18] = tested on: MDA-MB-435
[19] = tested on: BT-549 breast
[20] = tested on: M14 melanoma
[21] = tested on: SNB-19 CNS
[22] = tested on: UACC-257 melanoma
[23] = tested on: RXF 393 renal
[24] = tested on: OVCAR-5 ovarian
[25] = tested on: A549 NSCLC
[26] = tested on: EKVX NSCLC
[27] = tested on: HCT-116 colon
[28] = tested on: NCI-H460 lung
[29] = tested on: NCI/ADR-RES ovarian
[30] = tested on: SR leukemia
[31] = tested on: OVCAR-3 ovarian
[32] = tested on: COLO 205 colon
[33] = tested on: HL-60(TB) leukemia
[34] = tested on: MALME-3M melanoma
[35] = tested on: HCT-15 colon
[36] = tested on: RPMI-8226 leukemia
[37] = tested on: A498 renal
[38] = tested on: SF-539 CNS
[39] = tested on: PC-3 prostate
[40] = tested on: IGROV1 ovarian
[41] = tested on: HOP-92 NSCLC
[42] = tested on: MDA-MB-231 breast
[43] = tested on: LOX IMVI melanoma
[44] = tested on: UACC-62 melanoma
[45] = tested on: HCC-2998 colon
[46] = tested on: OVCAR-8 ovarian
[47] = tested on: NCI-H226 lung
[48] = tested on: ACHN renal
[49] = tested on: UO-31 renal
[50] = tested on: DU-145 prostate
[51] = tested on: SW-620 colon
[52] = tested on: OVCAR-4 ovarian
[53] = tested on: MCF7 breast
[54] = tested on: SK-OV-3 ovarian
[55] = tested on: SF-295 CNS
[56] = tested on: MOLT-4 leukemia
[57] = tested on: MDA-N
[58] = tested on: HOP-62 NSCLC
[59] = tested on: KM12 colon

SMILES: NC(N)=N/N=C(\c1ccc(F)cc1)c1ccc(C(F)(F)F)cc1
- TGI [1]: 13.6 µM
- TGI [2]: 7.29 µM
- TGI [3]: 7.77 µM
- TGI [4]: 4.72 µM
- TGI [5]: 2.08 µM
- TGI [6]: 1.85 µM
- TGI [7]: 5.82 µM
- TGI [8]: 0.525 µM
- TGI [9]: 4.06 µM
- TGI [10]: 5.43 µM
- TGI [11]: 1.59 µM
- TGI [12]: 4.98 µM
- TGI [13]: 9.96 µM
- TGI [14]: 4.98 µM
- TGI [15]: 3.67 µM
- TGI [16]: 9.05 µM
- TGI [17]: 8 µM
- TGI [18]: 0.298 µM
- TGI [19]: 4.02 µM
- TGI [20]: 1.35 µM
- TGI [21]: 14.3 µM
- TGI [22]: 4.63 µM
- TGI [23]: 0.633 µM
- TGI [24]: 9.74 µM
- TGI [25]: 4.96 µM
- TGI [26]: 11.3 µM
- TGI [27]: 1.28 µM
- TGI [28]: 2.09 µM
- TGI [29]: 4.35 µM
- TGI [30]: 1.47 µM
- TGI [31]: 1.59 µM
- TGI [32]: 0.877 µM
- TGI [33]: 0.762 µM
- TGI [34]: 2.53 µM
- TGI [35]: 7.45 µM
- TGI [36]: 2.21 µM
- TGI [37]: 0.333 µM
- TGI [38]: 0.749 µM
- TGI [39]: 5.51 µM
- TGI [40]: 1.49 µM
- TGI [41]: 8.59 µM
- TGI [42]: 1.15 µM
- TGI [43]: 1.64 µM
- TGI [44]: 1.55 µM
- TGI [45]: 1.75 µM
- TGI [46]: 3.09 µM
- TGI [47]: 0.783 µM
- TGI [48]: 10.1 µM
- TGI [49]: 4.13 µM
- TGI [50]: 7.76 µM
- TGI [51]: 2.04 µM
- TGI [52]: 15.9 µM
- TGI [53]: 2.15 µM
- TGI [54]: 4.94 µM
- TGI [55]: 0.817 µM
- TGI [56]: 1.44 µM
- TGI [57]: 0.494 µM
- TGI [58]: 0.955 µM
- TGI [59]: 2.04 µM

SMILES: CC1(c2ccc(Cl)cc2)NC(=NCCO)c2ccccc21 (stereo not given)
- TGI [1]: > 100 µM
- TGI [2]: > 94.5 µM
- TGI [3]: > 85.1 µM
- TGI [4]: > 100 µM
- TGI [5]: 33.4 µM
- TGI [6]: > 95.1 µM
- TGI [7]: > 48 µM
- TGI [8]: > 100 µM
- TGI [9]: 37.7 µM
- TGI [10]: 24.2 µM
- TGI [11]: 30.4 µM
- TGI [12]: > 62.8 µM
- TGI [13]: > 100 µM
- TGI [14]: > 100 µM
- TGI [15]: 31 µM
- TGI [16]: > 100 µM
- TGI [17]: 30 µM
- TGI [18]: 32.6 µM
- TGI [19]: 99.7 µM
- TGI [20]: 25.5 µM
- TGI [21]: > 100 µM
- TGI [22]: 33.5 µM
- TGI [23]: 57.9 µM
- TGI [24]: > 100 µM
- TGI [25]: > 100 µM
- TGI [26]: > 100 µM
- TGI [27]: > 100 µM
- TGI [28]: > 84.5 µM
- TGI [29]: > 100 µM
- TGI [30]: 46 µM
- TGI [31]: > 100 µM
- TGI [32]: 28.8 µM
- TGI [33]: > 35.5 µM
- TGI [34]: 35 µM
- TGI [35]: > 100 µM
- TGI [36]: 19.5 µM
- TGI [37]: 52.6 µM
- TGI [38]: 27.3 µM
- TGI [39]: > 100 µM
- TGI [40]: > 100 µM
- TGI [41]: 77.9 µM
- TGI [42]: > 100 µM
- TGI [43]: 32.8 µM
- TGI [44]: 32.1 µM
- TGI [45]: 24.8 µM
- TGI [46]: > 100 µM
- TGI [47]: > 100 µM
- TGI [48]: > 100 µM
- TGI [49]: > 100 µM
- TGI [50]: > 70.8 µM
- TGI [51]: > 100 µM
- TGI [52]: > 100 µM
- TGI [53]: 53.1 µM
- TGI [54]: > 100 µM
- TGI [55]: > 81.1 µM
- TGI [56]: 37.8 µM
- TGI [57]: 26.9 µM
- TGI [58]: > 100 µM
- TGI [59]: > 57.3 µM

SMILES: CN1CCC(CN2c3ccccc3Sc3ccccc32)C1 (stereo not given)
- TGI [1]: 31.4 µM
- TGI [2]: 36 µM
- TGI [3]: 11.1 µM
- TGI [4]: 26.6 µM
- TGI [5]: 27.4 µM
- TGI [6]: 36.7 µM
- TGI [7]: 34.2 µM
- TGI [8]: 32 µM
- TGI [9]: 30.6 µM
- TGI [10]: 31.6 µM
- TGI [11]: 27.9 µM
- TGI [12]: 23.8 µM
- TGI [13]: 29.5 µM
- TGI [14]: 28.8 µM
- TGI [15]: 27.7 µM
- TGI [16]: 29.1 µM
- TGI [17]: 19.4 µM
- TGI [18]: 23.7 µM
- TGI [19]: 30.8 µM
- TGI [20]: 23.5 µM
- TGI [21]: 33.1 µM
- TGI [22]: 24.4 µM
- TGI [23]: 17.4 µM
- TGI [24]: 31.8 µM
- TGI [25]: 32.2 µM
- TGI [26]: 31.5 µM
- TGI [27]: 26.9 µM
- TGI [28]: 28.2 µM
- TGI [29]: 29.8 µM
- TGI [30]: 29.6 µM
- TGI [31]: 28.6 µM
- TGI [32]: 25.2 µM
- TGI [33]: 29.7 µM
- TGI [34]: 31.7 µM
- TGI [35]: 31.4 µM
- TGI [36]: 33.8 µM
- TGI [37]: 26.2 µM
- TGI [38]: 31.9 µM
- TGI [39]: 25.4 µM
- TGI [40]: 31.6 µM
- TGI [41]: 29.5 µM
- TGI [42]: 27.4 µM
- TGI [43]: 30 µM
- TGI [44]: 25.9 µM
- TGI [45]: 24.7 µM
- TGI [46]: 31.9 µM
- TGI [47]: 35 µM
- TGI [48]: 27.9 µM
- TGI [49]: 30 µM
- TGI [50]: 38.1 µM
- TGI [51]: 35.7 µM
- TGI [52]: 28.1 µM
- TGI [53]: 35 µM
- TGI [54]: 31.6 µM
- TGI [55]: 29.8 µM
- TGI [56]: 38.7 µM
- TGI [57]: 27.7 µM
- TGI [58]: 28.5 µM
- TGI [59]: 34.5 µM

SMILES: O=C1NC(N/N=C\C(O)C(O)C(O)C(O)CO)=N/C1=C\c1ccc(Cl)cc1 (stereo not given)
- TGI [1]: 27.4 µM
- TGI [2]: 21.2 µM
- TGI [3]: 6.04 µM
- TGI [5]: > 100 µM
- TGI [6]: 6.68 µM
- TGI [7]: 14.1 µM
- TGI [8]: 7.46 µM
- TGI [9]: 23.1 µM
- TGI [10]: > 73.1 µM
- TGI [11]: 18.1 µM
- TGI [12]: 36.3 µM
- TGI [13]: 10.5 µM
- TGI [14]: > 100 µM
- TGI [15]: 31.4 µM
- TGI [16]: 15.3 µM
- TGI [17]: > 100 µM
- TGI [18]: 34.7 µM
- TGI [19]: 31.4 µM
- TGI [20]: 18.1 µM
- TGI [21]: 10.9 µM
- TGI [22]: 37.4 µM
- TGI [23]: 25.6 µM
- TGI [24]: > 66.6 µM
- TGI [25]: > 73.3 µM
- TGI [26]: 38.9 µM
- TGI [27]: > 40.4 µM
- TGI [28]: 32.3 µM
- TGI [29]: > 100 µM
- TGI [30]: 19.3 µM
- TGI [31]: 6.88 µM
- TGI [32]: 23.7 µM
- TGI [33]: > 72.1 µM
- TGI [34]: 5.95 µM
- TGI [35]: > 100 µM
- TGI [36]: > 100 µM
- TGI [37]: 39.9 µM
- TGI [38]: 1.01 µM
- TGI [39]: 18.5 µM
- TGI [40]: 31.9 µM
- TGI [41]: 7.44 µM
- TGI [42]: 15.2 µM
- TGI [43]: 12.8 µM
- TGI [44]: 3.14 µM
- TGI [45]: 36.3 µM
- TGI [46]: 5.63 µM
- TGI [47]: 10.6 µM
- TGI [48]: > 59.1 µM
- TGI [49]: > 79.9 µM
- TGI [50]: 91.5 µM
- TGI [51]: > 100 µM
- TGI [52]: 26 µM
- TGI [53]: > 100 µM
- TGI [54]: 40.6 µM
- TGI [55]: 31.5 µM
- TGI [56]: 24.6 µM
- TGI [57]: 9.99 µM
- TGI [58]: 7.5 µM
- TGI [59]: > 80.7 µM
